# Data from patent US20240090498A1, “ANTIMICROBIAL COMPOSITIONS” (TAKASAGO INTERNATIONAL CORPORATION, priority 2010, published 2024).
# Assays:
# Assay type in all cases: cell-based
# [1] = tested on: Enterococcus faecalis ATCC 29212; assay: Vapor phase activity against bacteria (Example 2, growth grading versus control); design: key: −: No Activity (growth); +: Slight Activity (some growth, but much less than control); ++: Medium Activity (pinprick growth); +++: High Activity (no growth); conditions: E.f. 29212; 7.1 or 9.3 mg/L as defined per composition; sealed 7 L box
# Method: (§1) Seeded brain heart infusion (BHI) agar plates of Escherichia coli ATCC 10536, Salmonella enterica ATCC13311, Pseudomonas aeruginosa ATCC 15422, Staphylococcus aureus ATCC 6538, Enterococcus faecalis ATCC 29212, and Enterococcus hirae ATCC 10541 were placed in sealed 7 L acrylic boxes and exposed to vapors of the compositions shown below. A control was established in which the agar plates was not treated with vapors. • Composition A: 9.3 mg/L of trans-2-hexenal • Composition B: 9.3 mg/L of trans-2-heptenal • Composition C: 9.3 mg/L of 2, 4-heptadienal • Composition D: 7.1 mg/L of trans-2-hexenal • Composition E: 7.1 mg/L of 2,4-heptadienal • Composition F: 7.1 mg/L of 2,4-heptadienal+citronellol (1:1) • Composition G: 9.3 mg/L of citronellal+citral DMA (1:1) • Composition H: 9.3 mg/L of benzaldehyde+citral DMA (1:1) • Composition I: 9.3 mg/L of furfural+citronellol (1:1) • Composition J: 7.1 mg/L of citral+citronellal (1:1) • Composition K: 7.1 mg/L of trans-2-hexenal+citronellol (1:1)
# [2] = tested on: Staphylococcus aureus ATCC 6538; assay: as above; design: key to the marks not given beside the values; conditions: S.a. 6538; 7.1 or 9.3 mg/L as defined per composition; sealed 7 L box
# Method: as §1
# [3] = tested on: Escherichia coli ATCC 10536; assay: as above; design: key to the marks not given beside the values; conditions: E.c. 10536; 7.1 or 9.3 mg/L as defined per composition; sealed 7 L box
# Method: as §1
# [4] = tested on: Salmonella enterica ATCC13311; assay: as above; design: key to the marks not given beside the values; conditions: S.e. 13311; 7.1 or 9.3 mg/L as defined per composition; sealed 7 L box
# Method: as §1
# [5] = tested on: Enterococcus hirae ATCC 10541; assay: as above; conditions: E.h 10541; 7.1 or 9.3 mg/L as defined per composition; sealed 7 L box
# Method: as §1
# [6] = tested on: Pseudomonas aeruginosa ATCC 15422; assay: as above; conditions: P.a. 15442; 7.1 or 9.3 mg/L as defined per composition; sealed 7 L box
# Method: as §1
# [7] = tested on: Enterococcus faecalis ATCC 29212; assay: Vapor phase MIC / combined FIC on seeded BHI agar plates in sealed 7 L box; conditions: ATCC29212, 72 h, E. faecalis, no growth after 3 days at room temperature, read-out: MIC alone (single material, vapor phase)
# Excerpt: (§2) Seeded brain heart infusion (BHI) agar plates of Escherichia coli ATCC 10536, Salmonella enterica ATCC13311, Pseudomonas aeruginosa ATCC 15422, Staphylococcus aureus ATCC 6538, Enterococcus faecalis ATCC 29212, and Enterococcus hirae ATCC 10541 were placed in sealed 7 L acrylic boxes and exposed to vapors of trans-2-alkenals (C6 to C11 carbon chain length) and mustard essential oil (MEO) binary combinations.
# (§3) The trans-2-alkenals and MEO were weighed neat into a glass jar which was positioned in the box between the seeded agar plates. The concentration of the single materials and binary combinations introduce in the 7 L box were expressed as weight per unit volume of the box (mg/L). Several concentrations ranging from 0.5 mg/L to 43 mg/L of the single materials and combinations were tested for each organism. The vapor phase minimum inhibition concentration (MIC) with “no growth” after 3 days of incubation at room temperature. Fractional Inhibition Concentrations (FIC) was determined to evaluate the antibacterial effect of trans-2-alkenals and MEO combinations in the vapor phase based on the following formula:
# (§4) Combined FIC=(MIC of trans-2-alkenalcombination/MIC of trans-2-alkenalalone)+(MIC of MEOcombination/MIC of MEOalone)
# (§5) Combined FIC values for trans-2-alkenals and MEO combinations are shown below in Table 1. Combinations with combined FIC equal or less than 0.5 are considered to have a strong synergistic effect.
# [8] = tested on: Enterococcus hirae ATCC 10541; assay: as above; conditions: ATCC10541, 72 h, E. hirae, no growth after 3 days at room temperature, read-out: MIC alone (single material, vapor phase)
# Excerpt: as §2, §3, §4, §5
# [9] = tested on: Pseudomonas aeruginosa ATCC 15422; assay: as above; conditions: ATCC15422, 72 h, P. aeruginosa, no growth after 3 days at room temperature, read-out: MIC alone (single material, vapor phase)
# Excerpt: as §2, §3, §4, §5
# S.e. 13311 = assay: MIC in solution; conditions: Salmonella enterica
# Method: (§6) MIC values were also determined for trans-2 octenal, octanal formulations, and MEO in solution and in the vapor phase.
# E.h. 10541 = assay: MIC in solution; conditions: Enterococcus hirae
# Method: as §6
# E.f. 29212 = assay: MIC in solution; conditions: Enterococcus faecalis
# Method: as §6
# P.a. 15442 = assay: MIC in solution; conditions: Pseudomonas aeruginosa
# Method: as §6
# S.a. 6538 = assay: MIC in solution; conditions: Staphylococcus aureus
# Method: as §6
# E.c. 10536 = assay: MIC in solution; conditions: Escherichia coli
# Method: as §6
# [10] = tested on: Staphylococcus aureus ATCC 6538; assay: Vapor phase MIC / combined FIC on seeded BHI agar plates in sealed 7 L box; conditions: ATCC6538, 72 h, S. aureus, no growth after 3 days at room temperature, read-out: MIC alone (single material, vapor phase)
# Excerpt: as §2, §3, §4, §5
# [11] = tested on: Escherichia coli ATCC 10536; assay: as above; conditions: ATCC10536, 72 h, E. coli, no growth after 3 days at room temperature, read-out: MIC alone (single material, vapor phase)
# Excerpt: as §2, §3, §4, §5
# [12] = tested on: Salmonella enterica ATCC13311; assay: as above; conditions: ATCC13311, 72 h, S. enterica, no growth after 3 days at room temperature, read-out: MIC alone (single material, vapor phase)
# Excerpt: as §2, §3, §4, §5
Compound,Vapor Phase Activity Against Bacteria [1],Vapor Phase Activity Against Bacteria [2],Vapor Phase Activity Against Bacteria [3],Vapor Phase Activity Against Bacteria [4],Vapor Phase Activity Against Bacteria [5],Vapor Phase Activity Against Bacteria [6],MIC [7] [µg/mL],MIC [8] [µg/mL],MIC [9] [µg/mL],also measured
"CC/C=C/C=C/C=O [Composition C, 2,4-heptadienal]",+++,+++,+++,+++,+,+++,–,–,–,–
CCCC/C=C/C=O [trans-2-heptenal],–,–,–,–,–,–,6.4,12.8,25.6,–
CCCCC/C=C/C=O [trans-2-octenal],–,–,–,–,–,–,43,25.6,43,MIC (S.e. 13311): > 125 µg/mL; MIC (E.h. 10541): > 125 µg/mL; MIC (E.f. 29212): > 125 µg/mL; MIC (P.a. 15442): > 125 µg/mL; MIC (S.a. 6538): > 125 µg/mL; MIC (E.c. 10536): > 125 µg/mL; MIC [10]: 3.6 µg/mL; MIC [11]: 43 µg/mL; MIC [12]: 43 µg/mL
"CC/C=C/C=C/C=O [Composition E, 2,4-heptadienal]",++,+++,+++,+++,+,++,–,–,–,–
CCCCCCC/C=C/C=O [trans-2-decenal],–,–,–,–,–,–,6.4,6.4,43,–
"CCC/C=C/C=O [Composition A, trans-2-hexenal]",+++,+++,+++,+++,+,+++,–,–,–,–
"CCCC/C=C/C=O [Composition B, trans-2-heptenal]",+++,+++,+++,+++,+++,+,–,–,–,–
CCCCCCCC/C=C/C=O [trans-2-undecenal],–,–,–,–,–,–,12.8,12.8,43,–
CCCCCCCC=O [octanal],–,–,–,–,–,–,42.4,42.4,84.8,MIC (S.e. 13311): > 125 µg/mL; MIC (E.h. 10541): > 125 µg/mL; MIC (E.f. 29212): > 125 µg/mL; MIC (P.a. 15442): > 125 µg/mL; MIC (S.a. 6538): > 125 µg/mL; MIC (E.c. 10536): > 125 µg/mL; MIC [10]: 7.8 µg/mL; MIC [11]: 21.1 µg/mL; MIC [12]: 42.4 µg/mL
CCCCCC/C=C/C=O [trans-2-nonenal],–,–,–,–,–,–,6.4,6.4,43,–
CCC/C=C/C=O [trans-2-hexenal],–,–,–,–,–,–,6.4,12.8,12.8,–
